Consider three compounds from patent US8618178B2, “Method and substances for treating T-cell mediated autoimmune diseases” (Eberhard-Karls-Universitaet Tuebingen Universitaetsklinikum, priority 2006, dated 2013).

Common to all, as to type: cell-based, mouse
In one assay the test system is IL-23. Put plainly: IL-23 production by DC, ELISA of culture supernatants. The conditions noted are these: GSH-OEt added to DMF. As for the experimental part:
(§1) IL-4, IL-10, IL-12 and interferon-γ were determined using the ELISA (enzyme linked immunosorbent assay) set or with the use of individual components from BD BioSciences. IL-23 in the supernatant was determined using the ELISA set (eBioscience). For intracytoplasmic cytokine analyses, the T cells were restimulated with PMA/ionomycin or with APC and peptide in the presence of brefeldin A, then fixed and permeabilized and stained. For the surface staining, anti-CD4 or KJ1-26 antibodies were used; the cytokine antibodies (PE labeled) were all obtained from BD Pharmingen.
(§2) As antigen presenting cells (APC), T cell depleted spleen cells from syngenic mice were used. Dendritic cells (DC) which were obtained from bone marrow (BMDC) and cultured with GM-CSF were used for the relevant experiments on day 7 of culturing. For the experiment, in each case an equal number of APC were cultured either with the medium alone, with L-BSO (C8H18N2O3S, 0.5 mM), dimethyl sulfoxide DMSO(C2H6OS), dimethyl fumarate DMF (C6H8O4, dissolved in DMSO, 70 μM), or calcium monomethyl fumarate (MMF; CaC10H10O8, 200 μM). All substances except for MMF (Fumapharm) were purchased from Sigma-Aldrich. At the respective stated times (see below) the cells were either analyzed directly for their GSH content, used for T cell stimulation or stimulated for IL-2 production with Escherichia coli lipopolysaccharides 055.B5 (Sigma-Aldrich) or CpG-DNA 1668 (MWG Biotech) and IL-4 (Stratmann). In order to raise the GSH level again, 1 mM GSH-OEt (C12H21N3O6S; Sigma-Aldrich) or 1 mM NAC (Sigma-Aldrich) was added. The GSH reservoirs in mice were depleted by feeding with DMF or MMF, and in man by treatment with Fumaderm®.

The next assay has as its system BMDC. The assay is described as follows: Measurement of reactive oxygen species (ROS) in DC with dichlorofluorescein, flow cytometry. The conditions noted are these: for effect on DMF-induced ROS increase in DC: added to DMF, 1 mM. Here is the method: For the measurement of reactive oxygen species (ROS) in DC and APC, the fluorescent dye 2′,7′ dichlorofluorescein (H2 DCFDA, Molecular Probes, Eugene, USA) was used. 5×10^5 DC were preincubated in 1 ml of RPMI medium (without mercaptoethanol) for 60 mins at 37° C. in the incubator with 1% DMSO or 10 μg/ml DMF+/−NAC (1 mM) or GSX (1 mM). After this preincubation, 1 μM/ml H2 DCFDA was added and the cells incubated for a further 30 mins at 37° C. Within one hour, the fluorescence produced was detected using flow cytometry (FL1).
as §2, with “added.” for “added. The GSH reservoirs in mice were depleted by feeding with DMF or MMF, and in man by treatment with Fumaderm®.”
For testing the potential of pharmaceutical substances to induce the ROS, the following procedure was developed: for the measurement of reactive oxygen species (ROS) in cells, the fluorescent dye 2′,7′ dichlorofluorescein (H2 DCFDA) is used. The absorption spectrum of the substance is 492-495 nm and the emission spectrum lies in the range between 517-527 nm. On induction of cell stress, e.g., by the administration of ROS-causing reagents, oxidation of the H2 DCFDA to DCFDA+H2 occurs. The fluorescence arising as a result can be detected using flow cytometry (FL1).

The next assay concerns IL-10. The assay is described as follows: IL-10 production by DC, ELISA of culture supernatants. The conditions noted are these: GSH-OEt added to DMF. As for the experimental part:
as §1
as §2, with “All substances except for MMF (Fumapharm) were purchased from Sigma-Aldrich.” left out, “In order to raise the GSH level again, 1 mM GSH-OEt (C12H21N3O6S; Sigma-Aldrich) or 1 mM NAC (Sigma-Aldrich) was added. The GSH reservoirs in mice were depleted by feeding with DMF or MMF, and in man by treatment with Fumaderm®.” left out

The next assay deals with IL-12. Put plainly: IL-12 production by DC, ELISA of culture supernatants. The conditions noted are these: for effect on IL-12 suppression caused by GSH depletion in DC: exogenous addition, 1 mM. Here is the method:
as §1
as §2, with “used for T cell stimulation or stimulated for IL-2 production with Escherichia coli lipopolysaccharides” left out, “added.” for “added. The GSH reservoirs in mice were depleted by feeding with DMF or MMF, and in man by treatment with Fumaderm®.”
(In an ELISA, binding on a coated surface is turned into a signal by an enzyme label.)

Regarding `CCOC(=O)CNC(=O)[C@H](CS)NC(=O)CC[C@H](N)C(=O)O` [GSH-OEt, GSH ethyl ester], in the assay with IL-23, the “IL-23 production in DC, added to DMF” value is “restored IL-23 production”. Moreover, the “effect on DMF-induced ROS increase in DC” value in the assay on BMDC is listed as “completely neutralized”. For the same compound, in the assay with IL-10, the “IL-10 production in DC, added to DMF” value was “decreased IL-10 production”. In the assay on IL-12, the “effect on IL-12 suppression caused by GSH depletion in DC” value is reported as “neutralized the IL-12 suppression”.

On to `OO` [H2O2, hydrogen peroxide], for which the “intracellular ROS in DC” value in the assay with BMDC (dichlorofluorescein, flow cytometry) is recorded as “induction of ROS”. Moreover, the “IL-12 production by DC” value in the assay with IL-12 (after stimulation with LPS) is listed as “lower the production of IL-12”.

Take `CC(=O)N[C@@H](CS)C(=O)O` [NAC, N-acetylcysteine]: in the assay on BMDC, the “effect on DMF-induced ROS increase in DC” value is “completely neutralized”. Moreover, in the assay on IL-12, the “effect on IL-12 suppression caused by GSH depletion in DC” value is “same effects as GSH-OEt”.
